Some test systems named below: CAKI-1 renal; HCT-15 colon; MDA-MB-231 breast; NCI/ADR-RES ovarian; OVCAR-4 ovarian; SN12C renal; TK-10 renal; HCC-2998 colon; MDA-MB-435; SF-539 CNS.
What all share (assay): NCI tumour cell line growth inhibition, 48 h

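These data come from cells grown in 96-well plates and exposed to compound for 48 hours at five concentrations. GI50 = concentration required for 50% inhibition of growth. The concentration for full growth arrest is given as TGI.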

TGI and GI50 data for 13 compounds are collected here from PubChem BioAssay (NCI).

For `CC1(C(=O)O)CCCC1C(=O)O` (stereo not given), the TGI with CAKI-1 renal, in the experiment with HCT-15 colon, in the experiment on MDA-MB-231 breast, in the experiment with NCI/ADR-RES ovarian, in the experiment with OVCAR-4 ovarian and in the experiment on SN12C renal was > 100 µM each time. Moreover, in the experiment on TK-10 renal, the TGI is > 100 µM.
Take `N#Cc1c(-c2ccc(F)cc2)nc(N/N=C/c2c[nH]c3ccccc23)nc1N1CCOCC1`: the GI50 is 9.91 µM in the experiment with HCC-2998 colon; 0.784 µM in the experiment with HCT-15 colon; 5.16 µM in the experiment on MDA-MB-231 breast; 9.26 µM in the experiment on MDA-MB-435; 13.2 µM in the experiment with NCI/ADR-RES ovarian; 16.1 µM in the experiment on OVCAR-4 ovarian. For the same compound, the GI50 with SF-539 CNS was 3.68 µM; in the experiment with SN12C renal it was 16.6 µM; in the experiment with TK-10 renal it was 15.5 µM. In addition, the TGI in the experiment with HCC-2998 colon was > 100 µM; in the experiment on HCT-15 colon it was 4.56 µM; in the experiment with MDA-MB-231 breast it was 56.4 µM; with MDA-MB-435, 74.9 µM; in the experiment with NCI/ADR-RES ovarian, > 100 µM; in the experiment with OVCAR-4 ovarian, 62.8 µM. Also, the TGI was 23 µM in the experiment on SF-539 CNS, > 100 µM in the experiment on SN12C renal and 61 µM in the experiment with TK-10 renal.
Turning to `CCN1CCC(O)(C(C(=O)O)c2ccccc2)CC1` (stereo not given), the TGI in the experiment with CAKI-1 renal, in the experiment on HCC-2998 colon, in the experiment with HCT-15 colon, in the experiment on MDA-MB-231 breast, in the experiment on MDA-MB-435 and with NCI/ADR-RES ovarian was > 100 µM in each case. In addition, the TGI in the experiment with OVCAR-4 ovarian and with TK-10 renal was > 100 µM in each case.
For the compound `COc1c(Br)cc(CC(N)=O)c(O)c1Br`, the TGI in the experiment on CAKI-1 renal, with HCC-2998 colon, in the experiment with OVCAR-4 ovarian, with SF-539 CNS, in the experiment on SN12C renal and with TK-10 renal was > 100 µM each time.
With `OC1(c2ccc(Cl)cc2)c2ccc3ccccc3c2C2=N[C@H]3CCCC[C@@H]3N21` (stereo not given in full), the TGI is 67.1 µM with CAKI-1 renal; 28.3 µM in the experiment on HCT-15 colon; > 100 µM with MDA-MB-231 breast; > 100 µM in the experiment on MDA-MB-435; 5.99 µM in the experiment on NCI/ADR-RES ovarian; > 100 µM in the experiment on OVCAR-4 ovarian. Moreover, the TGI in the experiment with SF-539 CNS is 43.7 µM; in the experiment with SN12C renal it was > 100 µM; with TK-10 renal, 4.87 µM.
As for `CCC(C(=O)c1ccc(OC)c(OC)c1)N(C(=O)C(F)(F)F)C(C)c1ccccc1` (stereo not given), the TGI in the experiment on CAKI-1 renal, with HCC-2998 colon, in the experiment on HCT-15 colon, with MDA-MB-231 breast, in the experiment on MDA-MB-435 and with NCI/ADR-RES ovarian was > 100 µM throughout. Moreover, in the experiment on TK-10 renal, the TGI was > 100 µM.
Regarding `NC(N)=Nc1ncccc1[N+](=O)[O-]`, the TGI in the experiment on CAKI-1 renal, in the experiment with HCC-2998 colon, with HCT-15 colon, in the experiment with NCI/ADR-RES ovarian, in the experiment with OVCAR-4 ovarian and in the experiment with SF-539 CNS was > 100 µM each time. Further, in the experiment with SN12C renal, the TGI was > 100 µM.
As for `COc1cc(/C=C\C(=O)O)ccc1OCc1ccccc1`, the TGI with CAKI-1 renal, with HCC-2998 colon, in the experiment on HCT-15 colon, in the experiment on MDA-MB-231 breast, in the experiment on MDA-MB-435 and in the experiment with NCI/ADR-RES ovarian was > 100 µM throughout. Moreover, the TGI with SF-539 CNS, with SN12C renal and in the experiment on TK-10 renal was > 100 µM each time.
Turning to `O=c1oc2cc(O)ccc2c(O)c1C(c1ccc(C(c2c(O)c3ccc(O)cc3oc2=O)c2c(O)c3ccc(O)cc3oc2=O)cc1)c1c(O)c2ccc(O)cc2oc1=O`, the TGI with CAKI-1 renal, with HCC-2998 colon, in the experiment with HCT-15 colon, in the experiment on MDA-MB-231 breast, in the experiment with MDA-MB-435 and with NCI/ADR-RES ovarian was > 100 µM throughout. For the same compound, the TGI with OVCAR-4 ovarian, in the experiment with SF-539 CNS, in the experiment on SN12C renal and with TK-10 renal was > 100 µM throughout.
`O=C(N/N=C/c1cc(Br)cc(Br)c1[O-])c1ccccc1O.O=C(N/N=C/c1cc(Br)cc(Br)c1[O-])c1ccccc1O.[Fe+2]`: the TGI worked out at 34.5 µM in the experiment on CAKI-1 renal; 12.5 µM in the experiment with HCC-2998 colon; 13.8 µM in the experiment with HCT-15 colon; 18.4 µM in the experiment on OVCAR-4 ovarian; 14.1 µM in the experiment on SF-539 CNS; 28.5 µM in the experiment with TK-10 renal.
`O=C(CC1=NCCN1)c1ccccc1`: the TGI in the experiment on CAKI-1 renal, in the experiment with HCC-2998 colon, in the experiment on HCT-15 colon, with NCI/ADR-RES ovarian, in the experiment with OVCAR-4 ovarian and in the experiment with SF-539 CNS was > 750 µM each time. In addition, the TGI in the experiment with SN12C renal is > 750 µM.
`O=C1C(Cl)N(c2ccccc2[N+](=O)[O-])C1c1c[nH]c2ccccc12` (stereo not given): the TGI in the experiment with OVCAR-4 ovarian, with SF-539 CNS, in the experiment on SN12C renal and in the experiment with TK-10 renal was > 100 µM in each case.
In the case of `O=C(Nc1cccc(O)c1)C(=O)C(C(=O)c1ccccc1F)C1OC(=O)c2ccccc21` (stereo not given), the TGI with CAKI-1 renal is 94 µM; in the experiment on HCC-2998 colon it was 39.4 µM; in the experiment on HCT-15 colon, 49.2 µM; in the experiment with OVCAR-4 ovarian, > 100 µM; with SF-539 CNS it was 40.2 µM; in the experiment with SN12C renal it was > 100 µM. Moreover, the TGI in the experiment with TK-10 renal is > 100 µM.
